For the test, the target named is Cdk9/cyclinT1 (Homo sapiens, UniProt P50750). Kind of test: Cdk9/cyclinT1 IMAP protocol (fluorescence polarization). The settings on record: IC-50, CDK9; lower limit of assay 0.0005 micromolar.

pIC50: −log10 of the molar value.

Cdk9/cyclinT1, sequence (P50750 whole entry): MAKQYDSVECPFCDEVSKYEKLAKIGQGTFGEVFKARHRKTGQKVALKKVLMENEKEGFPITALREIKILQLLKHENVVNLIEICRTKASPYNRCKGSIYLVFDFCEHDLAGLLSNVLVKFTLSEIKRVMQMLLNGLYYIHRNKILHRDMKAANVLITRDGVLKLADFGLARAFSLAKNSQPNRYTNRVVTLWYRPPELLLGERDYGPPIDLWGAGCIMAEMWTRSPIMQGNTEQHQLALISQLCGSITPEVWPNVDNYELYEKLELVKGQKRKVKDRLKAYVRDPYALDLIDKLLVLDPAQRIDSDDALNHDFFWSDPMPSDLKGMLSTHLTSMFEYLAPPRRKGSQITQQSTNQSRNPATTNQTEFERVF
Cdk9/cyclinT1, sequence (O60563 whole entry partner): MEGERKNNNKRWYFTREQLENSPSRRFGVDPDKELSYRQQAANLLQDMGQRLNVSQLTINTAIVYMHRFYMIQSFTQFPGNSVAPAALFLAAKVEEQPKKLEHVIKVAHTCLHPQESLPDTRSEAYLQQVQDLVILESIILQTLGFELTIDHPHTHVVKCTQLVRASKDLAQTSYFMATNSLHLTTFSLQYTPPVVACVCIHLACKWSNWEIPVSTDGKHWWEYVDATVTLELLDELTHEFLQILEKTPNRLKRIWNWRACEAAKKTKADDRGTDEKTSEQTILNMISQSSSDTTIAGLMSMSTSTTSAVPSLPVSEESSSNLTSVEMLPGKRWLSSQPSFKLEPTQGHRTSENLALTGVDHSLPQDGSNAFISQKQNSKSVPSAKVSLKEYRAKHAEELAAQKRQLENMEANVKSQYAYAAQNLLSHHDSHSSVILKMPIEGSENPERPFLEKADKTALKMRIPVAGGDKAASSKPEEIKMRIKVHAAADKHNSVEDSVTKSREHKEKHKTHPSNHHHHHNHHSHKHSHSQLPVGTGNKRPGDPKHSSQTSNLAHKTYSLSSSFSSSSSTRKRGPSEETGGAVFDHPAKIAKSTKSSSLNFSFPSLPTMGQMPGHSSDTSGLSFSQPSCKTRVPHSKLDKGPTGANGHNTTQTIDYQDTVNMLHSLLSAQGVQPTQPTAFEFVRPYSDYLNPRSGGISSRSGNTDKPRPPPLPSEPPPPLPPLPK

The molecule `CS(=O)(=O)NC[C@H]1CC[C@H](Nc2cc(-c3cccc(NCC4(C#N)CCOCC4)n3)c(Cl)cn2)CC1` [Compound 494, N-((trans-4-((5′-chloro-6-(((4-cyanotetrahydro-2H-pyran-4-yl)methyl)amino)-[2,4′-bipyridin]-2′-yl)amino)cyclohexyl)methyl) methanesulfonamide] gave a pIC50 above 9.30.
In turn, `N#CC1(COc2cncc(-c3cc(N[C@H]4CC[C@H](N)CC4)ncc3Cl)n2)CCOCC1` [Compound 511, 4-(((6-(2-((trans-4-aminocyclohexyl)amino)-5-chloropyridin-4-yl)pyrazin-2-yl)oxy)methyl)tetrahydro-2H-pyran-4-carbonitrile] showed a pIC50 of 9.22.
In the case of `C[C@@H]1COCCN1[C@H]1CC[C@H](Nc2cc(-c3cccc(NCC4(C#N)CCOCC4)n3)c(Cl)cn2)CC1` [Compound 503, 4-(((5′-chloro-2′-((trans-4-((R)-3-methylmorpholino)cyclohexyl)amino)-[2,4′-bipyridin]-6-yl)amino)methyl)tetrahydro-2H-pyran-4-carbonitrile], the negative logarithm of the IC50 (pIC50) was 8.59.
As for `COC[C@@H](C)N[C@H]1CC[C@H](Nc2cc(-c3cccc(NCC4(C#N)CC4)n3)c(Cl)cn2)CC1` [Cmpd 400, 1-(((5′-chloro-2′-((trans-4-(((R)-1-methoxypropan-2-yl)amino)cyclohexyl)amino)-[2,4′-bipyridin]-6-yl)amino)methyl)cyclopropane-carbonitrile], the pIC50 is above 9.30.
`N#CC1(CNc2cccc(-c3cc(NC4CNC4)ncc3Cl)n2)CCOCC1` [Example 401] showed a negative logarithm of the IC50 (pIC50) of 7.09.
`COC[C@H](C)N[C@H]1CC[C@H](Nc2cc(-c3cccc(NCC4(C#N)CCOCC4)n3)c(Cl)cn2)CC1` [Compound 459, 4-(((5′-chloro-2′-((trans-4-(((S)-1-methoxypropan-2-yl)amino)cyclohexyl)amino)-[2,4′-bipyridin]-6-yl)amino)methyl)tetrahydro-2H-pyran-4-carbonitrile] gave a pIC50 of at least 9.30.
For `CC(C)S(=O)(=O)NC[C@H]1CC[C@H](Nc2cc(-c3cccc(NCC4(C#N)CCOCC4)n3)c(Cl)cn2)CC1` [Compound 495, N-((trans-4-((5′-chloro-6-(((4-cyanotetrahydro-2H-pyran-4-yl)methyl)amino)-[2,4′-bipyridin]-2′-yl)amino)cyclohexyl)methyl) propane-2-sulfonamide], the pIC50 was above 9.30.
The molecule `COC[C@H](C)N[C@H]1CC[C@H](Nc2cc(-c3cccc(NCC4(C#N)CCOCC4)n3)c(F)cn2)CC1` [Compound 489, 4-(((5′-fluoro-2′-((trans-4-(((S)-1-methoxypropan-2-yl)amino)cyclohexyl)amino)-[2,4′-bipyridin]-6-yl)amino)methyl)tetrahydro-2H-pyran-4-carbonitrile] showed a pIC50 of at least 9.30.
For `COC[C@H](C)N[C@H]1CC[C@H](Nc2cc(-c3cccc(NCC4(O)CCOCC4)n3)c(Cl)cn2)CC1` [Compound 451, 4-(((5′-chloro-2′-((trans-4-(((S)-1-methoxypropan-2-yl)amino)cyclohexyl)amino)-[2,4′-bipyridin]-6-yl)amino)methyl)tetrahydro-2H-pyran-4-ol], the pIC50 is 8.15.
`CO[C@H]1C[C@H](Nc2cc(-c3cccc(NCC4(C#N)CCOCC4)n3)c(Cl)cn2)CC[C@H]1N` (single isomer, unassigned) [Compound 436] had a pIC50 above 9.30.
As to `N#CC1(CNc2cccc(-c3cc(N[C@H]4CC[C@H](NC[C@@H](O)C(F)(F)F)CC4)ncc3Cl)n2)CCOCC1` [Compound 491, 4-(((5′-chloro-2′-((trans-4-(((R)-3,3,3-trifluoro-2-hydroxypropyl)amino)cyclohexyl)amino)-[2,4′-bipyridin]-6-yl)amino)methyl)tetrahydro-2H-pyran-4-carbonitrile], the negative logarithm of the IC50 (pIC50) is above 9.30.
In turn, `COCC(C)(C)N[C@H]1CC[C@H](Nc2cc(-c3cccc(NCC4(C#N)CCOCC4)n3)c(Cl)cn2)CC1` [Compound 454, 4-(((5′-chloro-2′-((trans-4-((1-methoxy-2-methylpropan-2-yl)amino)cyclohexyl)amino)-[2,4′-bipyridin]-6-yl)amino)methyl)tetrahydro-2H-pyran-4-carbonitrile] gave a negative logarithm of the IC50 (pIC50) of 8.70.
The molecule `N#CCCN[C@H]1CC[C@H](Nc2cc(-c3cccc(NCC4CCOCC4)n3)c(Cl)cn2)CC1` [Compound 444, 3-((trans-4-((5′-chloro-6-(((tetrahydro-2H-pyran-4-yl)methyl)amino)-[2,4′-bipyridin]-2′-yl)amino)cyclohexyl)amino) propanenitrile] gave a negative-log IC50 (pIC50) of 8.62.
`NC(=O)C1(CNc2cccc(-c3cc(N[C@H]4CC[C@H](N)CC4)ncc3F)n2)CC1` [Compound 487, 1-(((2′-((trans-4-aminocyclohexyl)amino)-5′-fluoro-[2,4′-bipyridin]-6-yl)amino)methyl)cyclopropane-carboxamide]: the negative-log IC50 (pIC50) was above 9.30.
Take `C[C@@H]1CN([C@H]2CC[C@@H](Nc3cc(-c4cccc(NCC5(C#N)CCOCC5)n4)c(Cl)cn3)CC2)C[C@H](C)O1` [Compound 427, 4-(((5′-chloro-2′-((cis-4-((2S,6R)-2,6-dimethylmorpholino)cyclohexyl)amino)-[2,4′-bipyridin]-6-yl)amino)methyl)tetrahydro-2H-pyran-4-carbonitrile]: the pIC50 is 8.09.
With `COCC(=O)NC[C@H]1CC[C@H](Nc2cc(-c3cccc(NCC4(C#N)CCOCC4)n3)c(Cl)cn2)CC1` [Compound 498, N-((trans-4-((5′-chloro-6-(((4-cyanotetrahydro-2H-pyran-4-yl)methyl)amino)-[2,4′-bipyridin]-2′-yl)amino)cyclohexyl)methyl)-2-methoxyacetamide] the figure was above 9.30; with `CO[C@@H]1CC[C@H](Nc2cc(-c3cccc(NCC4(C#N)CCOCC4)n3)c(Cl)cn2)C[C@H]1N` [Compound 438, 4-(((2′-(((1S,3R,4R)-3-amino-4-methoxycyclohexyl)amino)-5′-chloro-[2,4′-bipyridin]-6-yl)amino)methyl)tetrahydro-2H-pyran-4-carbonitrile], 7.70.
`N#CC1(CNc2cccc(-c3cc(N[C@H]4CC[C@H](NCC(N)=O)CC4)ncc3Cl)n2)CCOCC1` [Compound 419, 2-((trans-4-((5′-chloro-6-(((4-cyanotetrahydro-2H-pyran-4-yl)methyl)amino)-[2,4′-bipyridin]-2′-yl)amino)cyclohexyl)amino) acetamide]: the negative-log IC50 (pIC50) was above 9.30.
In turn, `N#CC1(CNc2cccc(-c3cc(N[C@@H]4CC[C@@H](NC5CCOC5)C4)ncc3Cl)n2)CCOCC1` (stereo partly drawn) [Compound 411, 4-(((5′-chloro-2′-(((1R,3R)-3-((tetrahydrofuran-3-yl)amino)cyclopentyl)amino)-[2,4′-bipyridin]-6-yl)amino)methyl)tetrahydro-2H-pyran-4-carbonitrile] had a pIC50 of 8.74.
`N#CC1(CNc2cccc(-c3cc(NC4CCOCC4)ncc3Cl)n2)CCOCC1` [Compound 443, 4-(((5′-chloro-2′-((tetrahydro-2H-pyran-4-yl)amino)-[2,4′-bipyridin]-6-yl)amino)methyl)tetrahydro-2H-pyran-4-carbonitrile] gave a negative-log IC50 (pIC50) of 8.77.
Turning to `NC(=O)C1(CNc2cccc(-c3cc(N[C@H]4CC[C@H](N)CC4)ncc3F)n2)CCOCC1` [Compound 485, 4-(((2′-((trans-4-aminocyclohexyl)amino)-5′-fluoro-[2,4′-bipyridin]-6-yl)amino)methyl)tetrahydro-2H-pyran-4-carboxamide], the negative-log IC50 (pIC50) was 8.74. The pIC50 values of the last two molecules are within 0.2 log units of each other.
Consider `CC(C)(C)OCCN[C@H]1CC[C@H](Nc2cc(-c3cccc(NCC4(C#N)CCOCC4)n3)c(Cl)cn2)CC1` [Compound 432, 4-(((2′-((trans-4-((2-(tert-butoxy)ethyl)amino)cyclohexyl)amino)-5′-chloro-[2,4′-bipyridin]-6-yl)amino)methyl)tetrahydro-2H-pyran-4-carbonitrile], for which the pIC50 was above 9.30.
In the case of `N#CC1(CNc2cccc(-c3cc(N[C@H]4CC[C@@H](N5CCNC(=O)C5)CC4)ncc3Cl)n2)CCOCC1` [Compound 418, 4-(((5′-chloro-2′-((cis-4-(3-oxopiperazin-1-yl)cyclohexyl)amino)-[2,4′-bipyridin]-6-yl)amino)methyl)tetrahydro-2H-pyran-4-carbonitrile], the pIC50 is 8.07.
`CN(C)C(=O)CN[C@H]1CC[C@H](Nc2cc(-c3cccc(NCC4(C#N)CCOCC4)n3)c(Cl)cn2)CC1` [Compound 423, 2-((trans-4-((5′-chloro-6-(((4-cyanotetrahydro-2H-pyran-4-yl)methyl)amino)-[2,4′-bipyridin]-2′-yl)amino)cyclohexyl)amino)-N,N-dimethylacetamide] had a pIC50 above 9.30.
In the case of `COC[C@H](C)N[C@H]1CC[C@H](Nc2cc(-c3ccc(F)c(NCC4(C#N)CCOCC4)n3)c(Cl)cn2)CC1` [Compound 458, 4-(((5′-chloro-5-fluoro-2′-((trans-4-(((S)-1-methoxypropan-2-yl)amino)cyclohexyl)amino)-[2,4′-bipyridin]-6-yl)amino)methyl)tetrahydro-2H-pyran-4-carbonitrile], the pIC50 is above 9.30.
With `N#CC1(CNc2cccc(-c3cc(NCC4CCOCC4)ncc3Cl)n2)CCOCC1` [Compound 441, 4-(((5′-chloro-2′-(((tetrahydro-2H-pyran-4-yl)methyl)amino)-[2,4′-bipyridin]-6-yl)amino)methyl)tetrahydro-2H-pyran-4-carbonitrile], the pIC50 was 8.52.
`CO[C@H]1CCN([C@H]2CC[C@H](Nc3cc(-c4cccc(NCC5(C#N)CCOCC5)n4)c(Cl)cn3)CC2)C1` [Compound 475, 4-(((5′-chloro-2′-((trans-4-((S)-3-methoxypyrrolidin-1-yl)cyclohexyl)amino)-[2,4′-bipyridin]-6-yl)amino)methyl)tetrahydro-2H-pyran-4-carbonitrile]: the pIC50 was 9.22. This pIC50 is 0.70 log units higher than that of the molecule before.
With `N#CC1(CNc2cccc(-c3cc(N[C@H]4CC[C@H](NC5CCOC5)CC4)ncc3Cl)n2)CCOCC1` (stereo partly drawn) [Compound 467, 4-(((5′-chloro-2′-((trans-4-((tetrahydrofuran-3-yl)amino)cyclohexyl)amino)-[2,4′-bipyridin]-6-yl)amino)methyl)tetrahydro-2H-pyran-4-carbonitrile] the figure was above 9.30; with `CC(C)N[C@@H]1CC[C@@H](Nc2cc(-c3cccc(NCC4(C#N)CCOCC4)n3)c(Cl)cn2)C1` (relative stereo) [Example 408], 9.22.

As a reminder, the pIC50 is the negative decadic logarithm of the IC50, by convention in mol/L.

These data come from patent US20130303507A1 (Novartis AG, priority 2011, published 2013).
